Test results from US7816560B1, “Long chain n-alkyl compounds and oxa-derivatives thereof” (Thomas Jefferson University, priority 1999, dated 2010).
Like-named read-outs stand apart in the source and are kept apart here. Each block holds one molecule with its values, some of them ahead of it.

Columns and labels:
[1] = system: Hepatitis B virus (HBV); assay: Secretion of enveloped HBV from Hep G2.2.15 cells, antigen capture/PCR assay; type: cell-based
Description: Pairs of wells were used for each concentration point.
^2IC 50: The concentration of compound that prevented the secretion of 50% of the amount of HBV detected in the medium from wells containing untreated cultures.

[2] = system: MDBK cells; assay: Toxicity / cell cytotoxicity in MDBK cells; type: cell-based; settings: for % Viability at 10 μM: N-alkyl DNJ at 10 μM; for % Viability at 100 μM: N-alkyl DNJ at 100 μM
[3] = target: T1, ceramide glucosyl transferase (CerGlcT) (Homo sapiens, UniProt Q16739); assay: Inhibition of ceramide glucosyl transferase / glycolipid synthesis; type: biochemical; settings: for IC50: N-alkyl DNJ derivatives; for Inhibitor of glycolipid synthesis: Yes/No
T1 sequence (Q16739 1-394): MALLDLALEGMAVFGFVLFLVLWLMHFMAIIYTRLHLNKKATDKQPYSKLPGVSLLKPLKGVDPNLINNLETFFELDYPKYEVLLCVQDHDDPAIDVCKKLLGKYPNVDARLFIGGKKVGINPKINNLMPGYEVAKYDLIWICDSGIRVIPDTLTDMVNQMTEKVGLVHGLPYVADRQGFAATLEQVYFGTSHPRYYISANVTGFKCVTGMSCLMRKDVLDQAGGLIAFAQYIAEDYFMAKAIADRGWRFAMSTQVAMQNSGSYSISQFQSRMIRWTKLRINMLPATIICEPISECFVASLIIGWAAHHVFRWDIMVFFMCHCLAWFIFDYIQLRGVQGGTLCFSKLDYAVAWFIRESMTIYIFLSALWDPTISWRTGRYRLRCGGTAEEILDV

[4] = target: α-glucosidase; assay: Inhibition of α-glucosidase; type: biochemical; settings: for IC50: N-alkyl DNJ derivatives; for Inhibitor of α glucosidase: Yes/No
Description: The inhibitory activity (IC50) and the cell cytotoxicity (IC50) of various compounds, as well as their effect on α-glucosidase and ceramide glucosyl transferase, are shown in Table 2.

[5] = system: BVDV; assay: BVDV plaque reduction and yield assays in MDBK cells; type: cell-based, bovine viral diarrhea virus; settings: for Anti-viral effect on BVDV in MDBK cells: Yes/No
[6] = Toxicity / cell cytotoxicity in MDBK cells; type: cell-based; settings: bovine
[7] = system: HBV; assay: Secreted HBV DNA by Southern blot hybridization; type: cell-based, hepatitis B virus; settings: HepG2.2.15 cells, seven days
Procedure: Secreted DNA analysis: Secreted DNA analysis was performed by the method of Wei et al. (J. Virol. 70:6455-6458, 1996). […] Media containing drug was changed every two days and on the 7th day the media taken and the virus concentrated by pelleting through 20% sucrose for 16 hours (SW 41 rotor, 36,000 RPM). Virus was resuspended in 400 μL of 10 mM TRIS (pH 7.9), 10 mM EDTA (pH 8.0), and 10 mM MgCl2. Samples were split into two 200 μL aliquots and labeled as +Dnase and −Dnase. To both tubes, 15 μl of proteinase K was added to a final concentration of 750 μg/ml for one hour at 37° C. After one hour, 10 pl Dnase was added to the tube labeled +Dnase (final concentration is 50 units/ml) and incubated at 37° C. for one hour. SDS was added to a final concentration of 1% and additional proteinase K added to a final concentration of 500 μg/ml and the reaction allowed to proceed at 37° C. for 3-4 hours. DNA was than purified by phenol/chloroform extraction. DNA was separated on 1% agarose gel and probed with ^32P labeled probes as described (Mehta et al., Proc. Natl. Acad. Sci. USA 94:1822-1827, 1997).
HepG2.2.15 cells were grown for seven days in the absence or presence of NB-DNJ (1000 μg/ml), NN-DNJ (20 μg/ml) or NN-DGJ (20 μg/ml), respectively. After seven days, virus was isolated from these cell cultures, concentrated, and purified. Secreted HBV DNA was detected by Southern blot hybridization. HBV viral DNA from untreated cells was readily detected. The secretion of HBV DNA from treated HepG2.2.15 was also detected.

[8] = system: HBV; assay: Intracellular HBV DNA in HepG2.2.15 cells by Southern blot; type: cell-based, hepatitis B virus; settings: seven days; for Effect on intracellular HBV DNA: 3TC 1 μg/ml, NB-DNJ 1000 μg/ml, NN-DNJ and NN-DGJ 2 or 20 μg/ml
Procedure: Intracellular DNA analysis: Hep G2.2.15 cells were either left untreated or treated with the compounds listed above for seven days and the total DNA extracted as described (Mehta et al., ibid). DNA (20 μg) was digested with HindIII, resolved through a 1.2% agarose gel and transferred to nylon membranes. Membranes were then hybridized with a ^32P labeled probe containing the total HBV genome and developed as described (Lu et al., Proc. Natl. Acad. Sci. USA 94:2380-2385, 1997). The relaxed circular (rc), linear (lin), and closed circular (CCC) DNA were confirmed by enzymatic digestion.
An infected cell contains several forms of HBV DNA which represent different stages in the HBV life cycle. For example, covalently closed circular DNA (CCC DNA) is the nuclear form of the DNA and is thought to be the viral template (Heermann & Gerlich, 1992). In contrast, the relaxed circular DNA (re DNA) and linear forms (lin) are associated with the viral particle and their presence is an indicator of encapsidation of the viral pre-genomic RNA and the subsequent reverse transcription into progeny DNA (Ganem, Curr. Top. Microbiol. Immunol. 168:61-83, 1991). […] The amount of virus associated with the cells was detected seven days later by Southern blot analysis. The locations of the HBV relaxed circular DNA (rcDNA), covalently close circular (CCC) DNA, and single stranded (SS) DNA was identified by relative mobility.

[9] = target: T2, HBV polymerase (Hepatitis B virus genotype D subtype ayw, UniProt P03156); assay: Endogenous polymerase assay on purified HBV virions; type: biochemical
T2 construct: HBV virions were purified from the culture medium of untreated cells by ultracentrifugation and the polymerase activity (in the presence of the indicated compounds) tested; expressed in transfected cells; host or cells: Hep G2.2.15 (HepG2 stably transfected with a dimer of the HBV genome); virions pelleted from the culture medium
Procedure: Endogenous polymerase assay: Media containing HBV from Hep G2.2.15 cells was pelleted through 20% sucrose (SW 28 Rotor, 24,000 RPM) for 16 hours and the pellet re-suspended in 50 μl of a mixture containing 50 mM Tris (pH 7.5), 75 mM NH4Cl, 1 mM EDTA, 25 mM MgCl2, 0.1% β-mercaptoethanol, 0.5% NP-40, 0.4 mM each of dATP, dGTP, dTTP and 10 μl of P^32 labeled dCTP. […] DNA was purified by a phenol/chloroform extraction and ethanol precipitation.
HBV DNA replication involves the conversion of a pregenomic RNA (pgRNA) into DNA by the action of the HBV polymerase. Current nucleoside analogue drugs (e.g., 3TC) for treating HBV target this reaction, preventing the formation and secretion of HBV viral DNA. Because the iminosugar N-nonyl-DGJ prevents the formation of HBV rc DNA, it was important to determine whether N-nonyl-DGJ was acting by inhibiting the elongation step of the polymerase. HBV virions from normal and drug treated Hep G2.2.15 cells were purified and the endogenous polymerase activity was measured. HBV virions were purified from the culture medium of untreated cells by ultracentrifugation and the polymerase activity (in the presence of the indicated compounds) tested by the method of Ganem et al. (1998). Briefly, partially purified viral particles were incubated overnight with the indicated concentrations of compound and 10 μCi of ^32P-dCTP. Viral DNA was purified by phenol extraction and ethanol precipitation and resolved on a 1.2% agarose gel. The gel was dried and viral DNA bands detected using a Phospholmager.

[10] = system: Hep G2.2.15 cells; assay: MTT toxicity in Hep G2.2.15 cultures; settings: Hep G2.2.15 cultures at conclusion of experiment (10 days)
[11] = system: Hep G2.2.15 cells
[12] = Hepatitis B virus, HepG2.2.15, 216 h, Hep G2.2.15 cells, nine days of incubation, read-out: IC 50, secretion of HBV
[13] = MDBK cells, read-out: Anti-viral effect on BVDV in MDBK cells IC50
[14] = Bovine viral diarrhea virus isolates and strains, MDBK, read-out: Anti-viral effect on BVDV in MDBK cells IC50

T2 sequence (P03156 whole entry): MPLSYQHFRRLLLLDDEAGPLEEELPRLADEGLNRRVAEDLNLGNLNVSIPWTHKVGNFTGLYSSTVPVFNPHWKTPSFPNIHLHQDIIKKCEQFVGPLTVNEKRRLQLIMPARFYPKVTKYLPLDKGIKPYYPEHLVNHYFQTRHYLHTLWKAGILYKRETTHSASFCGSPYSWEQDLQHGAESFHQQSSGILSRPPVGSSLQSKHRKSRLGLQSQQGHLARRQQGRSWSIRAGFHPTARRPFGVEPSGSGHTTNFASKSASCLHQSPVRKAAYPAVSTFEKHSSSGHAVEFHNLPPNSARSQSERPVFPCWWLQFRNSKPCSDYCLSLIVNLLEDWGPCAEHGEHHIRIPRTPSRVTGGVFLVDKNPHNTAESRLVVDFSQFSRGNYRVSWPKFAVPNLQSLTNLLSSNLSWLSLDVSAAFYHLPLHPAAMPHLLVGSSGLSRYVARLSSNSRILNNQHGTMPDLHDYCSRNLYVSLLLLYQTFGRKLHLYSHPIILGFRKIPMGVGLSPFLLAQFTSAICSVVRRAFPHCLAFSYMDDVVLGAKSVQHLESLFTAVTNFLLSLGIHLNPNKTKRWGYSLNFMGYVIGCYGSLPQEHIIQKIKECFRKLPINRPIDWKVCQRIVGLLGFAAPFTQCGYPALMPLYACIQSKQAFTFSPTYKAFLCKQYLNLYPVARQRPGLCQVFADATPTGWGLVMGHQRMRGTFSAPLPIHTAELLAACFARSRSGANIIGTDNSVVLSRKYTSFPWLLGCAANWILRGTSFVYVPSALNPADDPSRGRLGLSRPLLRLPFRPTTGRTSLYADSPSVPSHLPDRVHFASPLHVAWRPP

SMILES: Nc1ccn([C@@H]2CS[C@H](CO)O2)c(=O)n1 [3TC, reference compound]
- IC50 [1, 12]: 5000 nM

- IC50 [3]: 23.8 µM
SMILES: CCCCCCN1C[C@H](O)[C@@H](O)[C@H](O)[C@H]1CO [C6]
- % Viability at 10 μM [2]: 73%
- % Viability at 100 μM [2]: 71%

- IC50 [3]: 16.8 µM
SMILES: CCCCCCCCN1C[C@H](O)[C@@H](O)[C@H](O)[C@H]1CO [C8]
- % Viability at 10 μM [2]: 70%
- % Viability at 100 μM [2]: 71%

- IC50 [4]: 480 nM
- IC50 [3]: 3.1 µM
SMILES: CCCCCCCCCCN1C[C@H](O)[C@@H](O)[C@H](O)[C@H]1CO [C10]
- % Viability at 10 μM [2]: 73%
- % Viability at 100 μM [2]: 43%

- IC50 [3]: 5.2 µM
SMILES: CCCCCCCCCCCCN1C[C@H](O)[C@@H](O)[C@H](O)[C@H]1CO [C12]
- % Viability at 10 μM [2]: 86%
- % Viability at 100 μM [2]: 1%

SMILES: OC[C@H]1NC[C@H](O)[C@@H](O)[C@@H]1O [DNJ, deoxynorjirimycin, reference compound]
- IC50 [5, 13]: 20000 nM
- Anti-viral effect on BVDV in MDBK cells [5]: Yes
- Inhibitor of α glucosidase [4]: Yes

SMILES: CCOCCCCCCN1C[C@H](O)[C@@H](O)[C@@H](O)[C@H]1C [N-7-oxa-nonyl MeDGJ, N-(7-oxa-nonyl)-1,5,6-trideoxy-1,5-imino-D-galactitol]
- Selectivity index (CC50/IC50) ([5]; BVDV in MDBK cells): 1400
- IC50 [5, 14]: 1500 nM
- Anti-viral effect on BVDV in MDBK cells [5]: Yes
- Inhibitor of α glucosidase [4]: No
- CC50 [6]: 2.1 mM
- Inhibitor of glycolipid synthesis [3]: No

SMILES: CCCCN1C[C@H](O)[C@@H](O)[C@@H](O)[C@H]1CO [N-butyl DGJ, reference compound]
- Anti-viral effect on BVDV in MDBK cells [5]: No
- Inhibitor of α glucosidase [4]: No

SMILES: CCCCN1C[C@H](O)[C@@H](O)[C@H](O)[C@H]1CO [N-butyl DNJ, N-butyl deoxynojiricmycin, reference compound]
- Decrease of secreted virus DNA ([7]; 1000 μg/ml): about 3 fold
- IC50 [5, 13]: 60000 to 120000 nM
- Anti-viral effect on BVDV in MDBK cells [5]: Yes
- Effect on intracellular HBV DNA [8]: dramatic increase in the replicative forms of HBV DNA
- IC50 [4]: 570 nM
- Inhibitor of α glucosidase [4]: Yes
- Effect on HBV polymerase activity ([9]; 4.52 mM): no effect on polymerase activity
- CC50 [2]: > 10000 µM
- % Viability at 10 μM [2]: 74%
- % Viability at 100 μM [2]: 77%

SMILES: CCCCCCCCCN1C[C@H](O)[C@@H](O)[C@@H](O)[C@H]1CO [N-nonyl DGJ, N-nonyl-1,5-dideoxy-1,5-imino-D-galactitol]
- Decrease of secreted virus DNA ([7]; 20 μg/ml): about 14 fold
- IC50 [5, 14]: 5000 nM
- Anti-viral effect on BVDV in MDBK cells [5]: Yes
- Reduction of intracellular HBV DNA ([8]; 2 or 20 μg/ml): greater than 25 fold
- Effect on intracellular HBV DNA [8]: almost complete disappearance of intracellular HBV DNA
- Inhibitor of α glucosidase [4]: No
- Reduction of enveloped HBV in the culture medium ([1]; Hep G2.2.15 cells, compared with untreated controls, nine days): at least as effective as NN-DNJ in reducing the HBV secretion
- IC50 [1, 12]: 1500 to 5000 nM
- IC50 ([1]; Hepatitis B virus, HepG2.2.15, read-out: IC50, HBV secretion): ~500 nM
- TOX 50 (MTT activity reduced to 50%) [10]: >200 µM
- Effect on HBV polymerase activity ([9]; 69 μM): no effect on polymerase activity
- CC50 [6]: 0.25 mM

SMILES: CCCCCCCCCN1C[C@H](O)[C@@H](O)[C@H](O)[C@H]1CO [N-nonyl DNJ, N-nonyl-deoxynojirimycin]
- Decrease of secreted virus DNA ([7]; 20 μg/ml): ~1.5 fold
- IC50 [5, 13]: 2000 to 3000 nM
- Anti-viral effect on BVDV in MDBK cells [5]: Yes
- Effect on intracellular HBV DNA [8]: did not cause a large increase in intracellular HBV DNA but rather a reduction
- Inhibitor of α glucosidase [4]: Yes
- IC50 ([1]; Hep G2.2.15 cells, antigen capture method, read-out: IC50, HBV secretion): ~1000 nM
- IC50 ([1]; Hep G2.2.15 cells, nine days of incubation, read-out: IC 50, secretion of HBV): 400 to 4000 nM
- TOX 50 (MTT activity reduced to 50%) [11]: >100 µM
- Effect on HBV polymerase activity ([9]; 69 μM): no effect on polymerase activity
- CC50 [2]: 250 µM
- % Viability at 10 μM [2]: 56%
- % Viability at 100 μM [2]: 41%

SMILES: CCCCCCCCCN1C[C@H](O)[C@@H](O)[C@@H](O)[C@H]1C [N-nonyl MeDGJ, N-nonyl-1,5,6-trideoxy-1,5-imino-D-galactitol]
- IC50 ([5]; Bovine viral diarrhea virus isolates and strains, MDBK, read-out: IC50, BVDV plaques): < 2500 nM
- IC50 [5, 14]: 2000 to 3000 nM
- Anti-viral effect on BVDV in MDBK cells [5]: Yes
- Inhibitor of α glucosidase [4]: No
- melting point: 49 to 51 °C
- Inhibitor of glycolipid synthesis [3]: No
